From ChEMBL document CHEMBL5576134, “Targeting Pancreatic Cancer with Novel Nicolaioidesin C Derivatives: Molecular Mechanism, In Vitro, and In Vivo Evaluations” (J Med Chem, 2024)
Calls of active or inactive are those of the source. The calls are words filed in the database; no cut-off is given here.

How the values were obtained:
[1] = Modulation of PI3K/AKT/mTOR signalling pathway in human MIA PaCa-2 cells in DMEM medium assessed as decrease in mTOR phosphorylation at 5 uM measured for 6 hrs by Western blot analysis; type: cell-based; conditions: filed as modulator
[2] = Modulation of PI3K/AKT/mTOR signalling pathway in human MIA PaCa-2 cells in DMEM medium assessed as decrease in Akt phosphorylation at 5 uM measured for 6 hrs by Western blot analysis; type: cell-based; conditions: filed as modulator
[3] = system: MIA PaCa-2; assay: Preferential cytotoxicity against human MIA PaCa-2 cells in DMEM measured after 24 hrs by WST-8 cell counting analysis; type: functional, cell-based; conditions: MIA PaCa-2, 24 h
[4] = system: PANC-1; assay: Preferential cytotoxicity against human PANC-1 cells in nutrient-deprived medium measured after 24 hrs by WST-8 cell counting analysis; type: functional
[5] = system: PANC-1; assay: Preferential cytotoxicity against human PANC-1 cells in DMEM measured after 24 hrs by WST-8 cell counting analysis; type: functional, cell-based; conditions: PANC-1, 24 h
[6] = system: MIA PaCa-2; assay: Preferential cytotoxicity against human MIA PaCa-2 cells in nutrient-deprived medium assessed as alteration in cell morphology by measuring membrane blebbing at 0.5 to 1 uM measured after 24 hrs by acridine orange and ethidium bromide dual fluorescent staining based microscopic analysis; type: functional; conditions: dose 0.5-1 µM
[7] = system: MIA PaCa-2; assay: Preferential cytotoxicity against human MIA PaCa-2 cells in nutrient-deprived medium assessed as alteration in cell morphology by measuring membrane leakage at 0.5 to 1 uM measured after 24 hrs by acridine orange and ethidium bromide dual fluorescent staining based microscopic analysis; type: functional; conditions: dose 0.5-1 µM
[8] = system: MIA PaCa-2; assay: Antimetastatic activity in human MIA PaCa-2 cells in DMEM media assessed as inhibition of colony formation incubated for 24 hrs by crystal violet staining-based assay; type: functional, cell-based; conditions: dose 5-20 µM
[9] = system: MIA PaCa-2; assay: Antimetastatic activity in human MIA PaCa-2 cells in DMEM media assessed as reduction in colony area at 5 uM incubated for 24 hrs by crystal violet staining-based assay (reference value: 37%); type: functional; set-up: scale not given: the % may be the effect or the level left
[10] = system: MIA PaCa-2; assay: Induction of endoplasmic reticulum (ER) stress in human MIA PaCa-2 cells assessed as reduction in CHOP expression measured after 6 hrs by Western blot analysis; type: functional, cell-based; conditions: dose 5.0 µM
[11] = system: MIA PaCa-2; assay: Induction of endoplasmic reticulum (ER) stress in human MIA PaCa-2 cells in DMEM medium assessed as change in TRB3 level at 5 uM measured after 6 hrs by Western blot analysis; type: functional, cell-based
[12] = Toxicity in BALB/c/Nu/Nu mouse xenografted with human MIA PaCa-2 cells assessed as change in body weight at 60 mg/kg, ip administered 5 times a week for 4 weeks in presence of gemcitabine; type: organism-based; conditions: in vivo, 672 h
[13] = Toxicity in BALB/c/Nu/Nu mouse xenografted with human MIA PaCa-2 cells assessed as change in abdominal organs at 60 mg/kg, ip administered 5 times a week for 4 weeks; type: organism-based; conditions: in vivo, 672 h
[14] = system: Mus musculus; assay: In-vivo modulation of PI3K/AKT/mTOR signalling pathway in human MIA PaCa-2 cells xenografted in BALB/c/Nu/Nu mouse assessed as downregulation of CHOP level at 60 mg/kg, ip administered 5 times a week for 4 weeks in presence of gemcitabine by Western blot analysis; type: functional, organism-based
[15] = system: MIA PaCa-2; assay: Antitumor activity against human MIA PaCa-2 cells xenografted in BALB/c/Nu/Nu mouse assessed as reduction in tumor cell density at 60 mg/kg, ip administered 5 times a week for 4 weeks by H and E staining based analysis; type: functional, organism-based
[16] = system: MIA PaCa-2; assay: Synergistic antitumor activity against human MIA PaCa-2 cells xenografted in BALB/c/Nu/Nu mouse assessed as increase in pleomorphism at 60 mg/kg, ip administered 5 times a week for 4 weeks by H and E staining based analysis; type: functional, organism-based

SMILES: CC(C)=CCCC1=CC[C@H](C(=O)c2c(O)cccc2O)[C@@H](c2cccc(F)c2F)C1 (relative stereo)
- Activity [1]: Active
- Activity [2]: Active
- IC50 [3]: 60.2 µM
- PC50 [4]: 0.23 µM
- IC50 [5]: 9.2 µM
- Activity [6]: Active
- Activity [7]: Active
- Activity [8]: Dose-Dependent Effect
- Activity [9]: 14%
- Activity [10]: Dose-Dependent Effect
- Activity [11]: Active
- Activity [12]: Non-Toxic
- Activity [13]: Non-Toxic
- Activity [14]: Active
- Activity [15]: Active
- Activity [16]: Active
